Among the test systems are BT-549; MDA-MB-231; NCI/ADR-RES; OVCAR-4; A549; 786-0; SK-MEL-5; OVCAR-5; MDA-N; CAKI-1; SK-MEL-2; SF-268; T47D; DU-145; PC-3; UACC-62; IGROV-1; HL-60; LOX IMVI.
Experiment in all cases: NCI tumour cell line growth inhibition, 48 h

11 compounds from ChEMBL document CHEMBL1201862, “PubChem BioAssay data set” (2004) can be followed below.

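Values below derive from 48-hour exposures of cells grown in 96-well plates, with endpoints linearly interpolated between the two concentrations bracketing the appropriate inhibition level. Abbreviation: GI50, concentration required for 50% inhibition of growth.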 Active and inactive are the calls of the source. Rule as the data show it: active = GI50 up to about 1.1 µM and inactive = higher.

Take `COc1ccc2c(C=O)c3n(c(=O)c2c1OC)CCc1cc2c(cc1-3)OCO2`: the GI50 with BT-549 was 18.9 µM (inactive); with MDA-MB-231, > 100 µM (inactive); with NCI/ADR-RES it was 18.6 µM (inactive); in the assay on OVCAR-4, > 100 µM (inactive); in the assay with A549 it was 22.3 µM (inactive); in the assay on 786-0 it was 90.2 µM (inactive). The GI50 with SK-MEL-5 was 24 µM (inactive); in the assay on OVCAR-5, > 100 µM (inactive); in the assay with MDA-N, 20 µM (inactive); with CAKI-1, > 100 µM (inactive); with SK-MEL-2, 25.9 µM (inactive); with SF-268, > 100 µM (inactive). The GI50 with T47D was 10.8 µM (inactive); in the assay with DU-145, 78.3 µM (inactive); in the assay on PC-3 it was 15.1 µM (inactive); in the assay with UACC-62, 21 µM (inactive); in the assay on IGROV-1 it was 56.6 µM (inactive); in the assay on HL-60, 29.7 µM (inactive).
In the case of `O=c1[nH]nc(Cc2ccccc2)n1/N=C/c1ccccc1Cl`, the GI50 with BT-549 is > 100 µM (inactive); in the assay on MDA-MB-231, > 100 µM (inactive); in the assay with NCI/ADR-RES it was > 100 µM (inactive); with OVCAR-4, > 100 µM (inactive); in the assay on A549 it was > 100 µM (inactive); with 786-0, 41.1 µM (inactive). Further, the GI50 in the assay on SK-MEL-5, with OVCAR-5, in the assay with MDA-N, with CAKI-1, in the assay on SK-MEL-2 and in the assay on SF-268 was > 100 µM (inactive) in each case. Moreover, the GI50 with T47D, in the assay with DU-145, with PC-3, with UACC-62, in the assay with LOX IMVI and in the assay with IGROV-1 was > 100 µM (inactive) in each case.
On to `CC1=C(C#N)S(=O)(=O)c2c(oc(C)c2C)N1`, for which the GI50 in the assay with BT-549, in the assay with MDA-MB-231, with NCI/ADR-RES, with OVCAR-4, in the assay on A549 and with 786-0 was > 100 µM (inactive) each time. Moreover, the GI50 in the assay on SK-MEL-5, with OVCAR-5, in the assay on MDA-N, in the assay on CAKI-1, with SK-MEL-2 and in the assay on SF-268 was > 100 µM (inactive) each time. For the same compound, the GI50 in the assay on T47D, with DU-145, in the assay with PC-3, in the assay on UACC-62 and in the assay on LOX IMVI was > 100 µM (inactive) each time.
With `CCCCCCCCCCOc1ccc(/N=N/c2nnc(-c3ccc(OCCCCC)cc3)s2)cc1`, the GI50 with BT-549, in the assay on MDA-MB-231, in the assay on NCI/ADR-RES, in the assay on OVCAR-4, in the assay on A549 and in the assay with 786-0 was > 100 µM (inactive) in each case. Besides, the GI50 with SK-MEL-5, in the assay on OVCAR-5, in the assay on MDA-N, in the assay with CAKI-1, in the assay with SF-268 and in the assay on T47D was > 100 µM (inactive) each time. For the same compound, the GI50 in the assay on DU-145 is > 100 µM (inactive); in the assay on PC-3 it was > 100 µM (inactive); in the assay with UACC-62 it was 48 µM (inactive); in the assay with LOX IMVI it was > 100 µM (inactive); in the assay with IGROV-1 it was > 100 µM (inactive).
Turning to `CCN(CC)C(=O)COc1cc2c(O)c3c(O)c(C)c4c(c13)C(=O)C(C)(OC=CC(OC)C(C)C(OC(C)=O)C(C)C(O)C(C)C(O)C(C)C=CC=C(C)C(=O)N2)O4` (centres undefined), the GI50 in the assay on BT-549, with MDA-MB-231, in the assay with NCI/ADR-RES, in the assay with OVCAR-4, with A549 and with 786-0 was > 100 µM (inactive) each time. Besides, the GI50 in the assay with SK-MEL-5, in the assay on OVCAR-5, with MDA-N, in the assay on CAKI-1, in the assay with SK-MEL-2 and in the assay on SF-268 was > 100 µM (inactive) each time. In addition, the GI50 with T47D, with DU-145, in the assay with PC-3, with UACC-62, in the assay with LOX IMVI and in the assay with IGROV-1 was > 100 µM (inactive) each time.
As to `CCN1C[C@]2(C)CC[C@H](OCc3ccccc3)C34C5C[C@@H]6CC[C@](O)(C(C[C@@H]32)C14)C5[C@H]6OCc1ccccc1` (some centres undefined), the GI50 was > 100 µM (inactive) in the assay with BT-549; 52.1 µM (inactive) in the assay on MDA-MB-231; > 100 µM (inactive) in the assay on NCI/ADR-RES; 85.1 µM (inactive) with OVCAR-4; > 100 µM (inactive) in the assay on A549; > 100 µM (inactive) in the assay on 786-0. For the same compound, the GI50 in the assay with SK-MEL-5 is 51.3 µM (inactive); with OVCAR-5, > 100 µM (inactive); with MDA-N it was 75.5 µM (inactive); in the assay with SK-MEL-2, 83.9 µM (inactive); in the assay with SF-268, > 100 µM (inactive); with T47D it was 56.1 µM (inactive). The GI50 in the assay on DU-145 was > 100 µM (inactive); with PC-3 it was 21.7 µM (inactive); in the assay on UACC-62, > 100 µM (inactive); in the assay on LOX IMVI it was > 100 µM (inactive); in the assay on IGROV-1 it was 92.3 µM (inactive).
As to `C=CCC1C(=O)Nc2cccc3ncn(c23)C1=O` (centres undefined), the GI50 in the assay with BT-549, in the assay on MDA-MB-231, in the assay with NCI/ADR-RES, with OVCAR-4, in the assay with A549 and in the assay with 786-0 was > 100 µM (inactive) in each case. The GI50 with SK-MEL-5, with OVCAR-5, in the assay on MDA-N, in the assay with CAKI-1, in the assay with SK-MEL-2 and in the assay on SF-268 was > 100 µM (inactive) throughout. Further, the GI50 in the assay with T47D, in the assay with DU-145, in the assay on PC-3, with UACC-62, in the assay with IGROV-1 and in the assay with HL-60 was > 100 µM (inactive) each time.
Take `Cc1ccc(S(=O)(=O)c2c(O)c3ccccc3n(C)c2=O)cc1`: the GI50 in the assay with BT-549, in the assay with MDA-MB-231, in the assay with NCI/ADR-RES, in the assay with OVCAR-4, in the assay with A549 and in the assay on 786-0 was > 100 µM (inactive) each time. In addition, the GI50 with SK-MEL-5, with OVCAR-5, in the assay with MDA-N, in the assay with CAKI-1, in the assay with SK-MEL-2 and with SF-268 was > 100 µM (inactive) throughout. For the same compound, the GI50 in the assay on T47D, in the assay on DU-145, in the assay on PC-3, in the assay on UACC-62, in the assay on IGROV-1 and in the assay with HL-60 was > 100 µM (inactive) each time.
As for `O=[N+]([O-])c1ccc(NN=C2c3ccccc3Cc3ccccc32)c([N+](=O)[O-])c1`, the GI50 in the assay on BT-549 was > 100 µM (inactive); in the assay with MDA-MB-231, 24.4 µM (inactive); in the assay on NCI/ADR-RES it was 4.82 µM (inactive); in the assay with OVCAR-4 it was 13.3 µM (inactive); in the assay with A549, > 21.1 µM (inactive); in the assay on 786-0, 10.9 µM (inactive). In addition, the GI50 was 4.27 µM (inactive) with SK-MEL-5; 12.3 µM (inactive) with OVCAR-5; 1.88 µM (inactive) with MDA-N; 9.51 µM (inactive) in the assay with CAKI-1; 3.44 µM (inactive) in the assay on SK-MEL-2; 14.3 µM (inactive) in the assay on SF-268. Besides, the GI50 was 35.8 µM (inactive) with T47D; > 30.4 µM (inactive) in the assay on DU-145; 4.95 µM (inactive) with PC-3; 5.38 µM (inactive) with UACC-62; 7.87 µM (inactive) in the assay on LOX IMVI; 4.97 µM (inactive) in the assay with IGROV-1.
For the compound `CNc1nc2n(CCO)c(-c3ccccc3)c(-c3ccccc3)nc-2c(=O)n1`, the GI50 in the assay on BT-549, in the assay on MDA-MB-231, with NCI/ADR-RES, with OVCAR-4, with A549 and with 786-0 was > 50 µM (inactive) throughout. For the same compound, the GI50 in the assay on SK-MEL-5, with OVCAR-5, in the assay on MDA-N, in the assay with CAKI-1, in the assay on SK-MEL-2 and in the assay on SF-268 was > 50 µM (inactive) throughout. For the same compound, the GI50 in the assay with T47D, in the assay on DU-145, in the assay on PC-3, in the assay on UACC-62, in the assay with LOX IMVI and in the assay with IGROV-1 was > 50 µM (inactive) throughout.
Turning to `CN(C(=O)c1cc2c(s1)sc1c(=O)n(C)c3ccccc3c12)c1ccccc1`, the GI50 with BT-549 was > 100 µM (inactive); in the assay with MDA-MB-231, 24.8 µM (inactive); with NCI/ADR-RES, 4.54 µM (inactive); in the assay on OVCAR-4 it was 42.7 µM (inactive); in the assay on A549 it was 8.55 µM (inactive); with 786-0, 5.27 µM (inactive). For the same compound, the GI50 with SK-MEL-5 is 3.56 µM (inactive); in the assay with OVCAR-5 it was 63.7 µM (inactive); in the assay with MDA-N, 0.61 µM (active); in the assay on CAKI-1 it was 7.41 µM (inactive); in the assay with SK-MEL-2, 3.77 µM (inactive); in the assay with T47D it was 28.8 µM (inactive). Further, the GI50 was 69.8 µM (inactive) in the assay with DU-145; 4.68 µM (inactive) in the assay with PC-3; 6.03 µM (inactive) with UACC-62; 18.5 µM (inactive) in the assay with LOX IMVI; 4.37 µM (inactive) in the assay with IGROV-1.
